Assay results as given in patent US20220008514A1, “COMBINED USE OF SELECTIVE SEROTONIN REUPTAKE INHIBITORS AND HEMATOPOIETIC GROWTH FACTORS FOR TREATING HEMATOPOIETIC DISEASES” (IMAGINE INSTITUT DES MALADIES GENETIQUES NECKER ENFANTS …, priority 2018, published 2022).

Assays:
[1] = system: irradiation-induced cytopenia in WT C57BL/6 mice; assay: Sub-lethal irradiation-induced cytopenia in mice: SSRI, hematopoietic growth factor or both (FIG. 7, 8, 9, Table 1); type: in vivo, mouse; settings: At Day 17 from sublethal irradiation
[2] = system: CD71+/TER119+ population in Tph1+/- mice; assay: Sub-lethal irradiation in Tph1+/- mice, fluoxetine versus placebo, erythroid precursor immunophenotyping (FIG. 5C, 5D); type: in vivo, mouse; settings: starting on day 7 following sub-lethal irradiation, compared to placebo
[3] = system: anemia after sub-lethal irradiation in WT mice; assay: Sub-lethal irradiation anemia model in WT mice, fluoxetine versus placebo (FIG. 5A, 5B); type: in vivo, mouse; settings: fluoxetine for 7 days followed by sub-lethal irradiation
[4] = system: chemotherapy induced aplasia; assay: Human cohort study: effect of SSRI on chemotherapy-induced aplasia after autologous HSCT (FIG. 6); type: in vivo; settings: patients at the time of autologous HSCT after myeloablative chemotherapy, versus matched controls not under SSRI
Description: FIG. 6. Human cohort study (effect of SSRI on chemotherapy induced aplasia). A reduced duration of aplasia is observed in patients treated with SSRI at the time of autologous HSCT (x), in comparison with the duration of aplasia observed for patients having not been under SSRI medication (+).
In order to evaluate the impact of treatment with SSRI on chemotherapy-induced aplasia, data of all patients benefiting from autologous hematopoietic stem cell transplantation (HSCT) from 2010 to 2017 in the hematology department of Necker Hospital, Paris, France were screened. Data from 22 patients who were under therapy with SSRI for usual indications at the time of autologous HSCT retrospectively reviewed, and compared with 66 control patients (3 controls per patient) matched for confounding factors (age, sex, disease, response of disease before therapy, conditioning regimen, date of transplant and number of CD34+ cells injected). It is observed a reduced duration of aplasia (a criterion of which, commonly described in the art, being a number of polynuclear neutrophils below 500/mm^3) in patients who were treated with SSRI at the time of autologous HSCT.

[5] = system: erythroid cells generated from CD34+ cord blood progenitor cells; assay: Human cord blood erythroid in vitro cell culture, erythroid proliferation (FIG. 3); type: cell-based; settings: serum-free medium with EPO (2 mU/ml)+IL-3 (10 ng/ml)+SCF (50 ng/ml)
Description: FIG. 3. Human in vitro experiments (effect of 5-HT combined with EPO). To determine the role played by serotonin in erythroid proliferation, inventors used a well-defined culture system that closely mimics the proliferation and differentiation of erythroid precursors in vivo. […] Erythroid cells were generated from CD34^+ cord blood progenitor cells in serum-free medium in the presence of EPO (2 mU/ml)+IL-3 (10 ng/ml)+stem cell factor (SCF; 50 ng/ml). Throughout data are mean±SEM. Unpaired t-test and Pearson linear and non-linear regressions were used when appropriate. *P<0.05, **P<0.005, ***P<0.0005.
Erythroid cells were generated from CD34^+ cord blood progenitor cells in serum-free medium in the presence of EPO (2 mU/ml)+IL-3 (10 ng/ml)+stem cell factor (SCF; 50 ng/ml) as previously described in Zermati et al., (2000) Exp. Hematol. 28:885-894.

`CNCC[C@@H](Oc1ccc(C(F)(F)F)cc1)c1ccccc1` (racemic) [fluoxetine, (RS)-N-methyl-3-phenyl-3-propan-1-amine] was tested, and the “% of mice with Hemoglobin level ≤8 g/dl” value [1] was 100%, the “% of mice with Normal Hemoglobin level” value [1] was 0% and the “% of mice with Normal neutrophil number” value [1] was 20%. For the same compound, the “% of mice with Normal platelet level” value [1] was 0%, the “CD71+/TER119+ population” value [2] was “significant increase” and the “day of rapid and significant increase in the number of reticulocytes” value [3] was 3 days. The “day of normalization of Hb levels” value ([3]; placebo no normalization until day 22) was 11 days and the “duration (length) of aplasia” value [4] was “considerably reduced by at least two days”.
`NCCc1c[nH]c2ccc(O)cc12` [5-HT, 5-hydroxytryptamine] was tested, and the erythroid proliferation [5] was “significantly enhances erythroid proliferation”.
`Cn1c2c(c3ccccc31)CCNCC2` [PNU 22394] was tested, and the erythroid proliferation [5] was “significantly enhances erythroid proliferation”.
